The values below come from patent US8338565B2, “Macrocyclic compounds for inhibition of tumor necrosis factor alpha” (Ensemble Therapeutics Corporation, priority 2008, dated 2012).

The structures appear in SMILES notation. Numbered stars: 1 amine (or outer) side, 2 acyl side, 3 side chain; on linkers, the order of the positions; unused ones are H or OH. Bridge positions count the residues as written; N and C are the ends. Square brackets hold non-standard residues; d marks the D form. Peptide text beside a SMILES is read from it. * marks the point of attachment. Phe(4-CF3) = N[C@@H](Cc1ccc(C(F)(F)F)cc1)C(=O)O; Bip = N[C@@H](Cc1ccc(-c2ccccc2)cc1)C(=O)O; dPhe(4-NH2) = Nc1ccc(C[C@@H](N)C(=O)O)cc1; Nip(3R) = O=C([C@@H]1CCCN([*:1])C1)[*:2]; Phe(4-NH2) = Nc1ccc(C[C@H](N)C(=O)O)cc1; dAla(2-furyl) = N[C@H](Cc1ccco1)C(=O)O; d(hPhe) = N[C@H](CCc1ccccc1)C(=O)O; 2Pal = N[C@@H](Cc1ccccn1)C(=O)O; 3Pal = N[C@@H](Cc1cccnc1)C(=O)O; 4Pal = N[C@@H](Cc1ccncc1)C(=O)O; Malonyl = O=C(CC(=O)[*:2])[*:1]; d3Pal = N[C@H](Cc1cccnc1)C(=O)O; d4Pal = N[C@H](Cc1ccncc1)C(=O)O; d2Thi = N[C@H](Cc1cccs1)C(=O)O; Suc = O=C(CCC(=O)[*:2])[*:1]; X2 = O=C(O)[C@H]1CCCN(*)C1; NMeA = CN[C@@H](C)C(=O)O; Ac3c = NC1(C(=O)O)CC1; Aib = CC(C)(N)C(=O)O; Inp = O=C(O)C1CCNCC1

The assay deals with T1, TNFα / TNFα receptor (TNFα R1/Fc) (Homo sapiens, UniProt P01375).
T1 construct: purchased R&D Systems
T1 sequence (P01375 77-233 limits assumed, species assumed): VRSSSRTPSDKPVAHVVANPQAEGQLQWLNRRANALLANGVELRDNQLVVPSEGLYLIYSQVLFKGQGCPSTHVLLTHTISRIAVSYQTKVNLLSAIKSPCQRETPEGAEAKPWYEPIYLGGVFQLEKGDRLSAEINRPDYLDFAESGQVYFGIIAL
In words: Inhibition of binding of TNFα to the TNFα receptor (plate ELISA competition). The following applies: Table 2; read-out: Activity (IC50, inhibition of TNFα binding to TNFα R1/Fc). As to the method: The compounds listed in Table 2 below were assayed for ability to inhibit binding of TNFα to the TNFα receptor (TNFα R1/Fc). The assays were performed as described in the following procedure: TNFα (R&D Systems) was coated on high binding plate wells (Corning 96-well) at a single uniform concentration of 15 nM, 100 μL/well in PBS. The coating proceeded for 30 minutes at 37° C. then 10 minutes at 4° C. The coated plate was washed with PBST, then 250 μL/well of blocking solution (PBST 0.1% BSA, bovine serum albumin) was added and incubation proceeded for 30-45 minutes at room temperature with agitation. The solution phase competition proceeded separately with the dilutions of test compound in PBST (phosphate buffered saline with Tween 20), 2% DMSO in a polypropylene plate (Corning 96-well storage plate) with a single concentration, 8.33 nM of the high affinity receptor for TNFα (R&D Systems). This solution phase incubation proceeded for 30 minutes at room temperature with agitation and was then added to the washed TNFα coated assay plate, 100 μL/well, and was incubated for a further 30 minutes at room temperature with agitation. The assay plate was washed and 100 μL goat anti-human IgG (Fc) HRP labeled antibody in PBST, 13 pM, (KPL Cat#04-10-2) was added to each well. This incubation proceeded for 25-30 minutes at room temperature with agitation. Following this incubation step, the plate was washed and a 100 μL TMB solution (SUREBLUE™ TMB Peroxidase substrate, KPL) was added per well and allowed to stand approximately 3-5 minutes for development. The TMB reaction was stopped with the addition of 0.5N HCl and then the plate was read for absorbance at 450 nm.
Background: An ELISA detects its analyte on a solid surface through an enzyme-linked reagent.
For `O=C1CCC(=O)N[C@H](CCc2ccccc2)C(=O)N[C@@H](Cc2ccc(C(F)(F)F)cc2)C(=O)N[C@H](Cc2ccccc2)C(=O)N[C@H](C(=O)O)Cc2ccc(cc2)N1` [Compound 2] ([d(hPhe)][Phe(4-CF3)][dF][Phe(4-NH2)]-OH; linker N-4 via Suc), the IC50 is over 100 µM.

Consider `O=C1CC(=O)N[C@H](Cc2cccs2)C(=O)N[C@@H](Cc2ccc(-c3ccccc3)cc2)C(=O)N[C@H](Cc2ccccc2)C(=O)N[C@H](C(=O)O)Cc2ccc(cc2)N1` [Compound 5] ([d2Thi][Bip][dF][Phe(4-NH2)]-OH; linker N-4 via Malonyl), for which the IC50 is 30 to 100 µM.

With `O=C1CCNc2ccc(cc2)C[C@@H](C(=O)O)NC(=O)[C@@H](Cc2ccccc2)NC(=O)[C@H](Cc2ccc(-c3ccccc3)cc2)NC(=O)[C@@H](Cc2cccs2)N1` [Compound 6], the IC50 was over 100 µM.

`O=C(O)CN1Cc2cccc(c2)CNC(=O)CCC(=O)N[C@H](Cc2cccs2)C(=O)N[C@@H](Cc2ccc(-c3ccccc3)cc2)C(=O)N[C@H](Cc2ccccc2)C1=O` [Compound 7]: the IC50 is over 100 µM.

For the compound `O=C1COc2ccc(cc2)C[C@@H](C(=O)O)NC(=O)[C@@H](Cc2ccccc2)NC(=O)[C@H](Cc2ccc(-c3ccccc3)cc2)NC(=O)[C@@H](Cc2cccs2)N1` [Compound 8], the IC50 was in the range of 30 to 100 µM.

Turning to `O=C(O)[C@@H]1Cc2ccc(cc2)NC(=O)[C@@H]2CCCC[C@H]2C(=O)N[C@H](Cc2cccs2)C(=O)N[C@@H](Cc2ccc(-c3ccccc3)cc2)C(=O)N[C@H](Cc2ccccc2)C(=O)N1` [Compound 9], the IC50 is 10 to 30 µM.

Regarding `O=C1CCC(=O)N[C@H](CCc2ccccc2)C(=O)N[C@@H](Cc2ccc(C(F)(F)F)cc2)C(=O)N[C@H](Cc2ccccc2)C(=O)N[C@@H](C(=O)N[C@H](Cc2ccccc2)C(=O)O)Cc2ccc(cc2)N1` [Compound 13] ([d(hPhe)][Phe(4-CF3)][dF][dPhe(4-NH2)][dF]-OH; linker N-4 via Suc), the IC50 was over 100 µM.

For the compound `CC(C)(NC(=O)[C@H]1Cc2ccc(cc2)NC(=O)CCC(=O)N[C@H](CCc2ccccc2)C(=O)N[C@@H](Cc2ccc(C(F)(F)F)cc2)C(=O)N[C@H](Cc2ccccc2)C(=O)N1)C(=O)O` [Compound 14] ([d(hPhe)][Phe(4-CF3)][dF][dPhe(4-NH2)][Aib]-OH; linker N-4 via Suc), the IC50 lay in the range of 30 to 100 µM.

Consider `O=C1CCC(=O)N[C@H](CCc2ccccc2)C(=O)N[C@@H](Cc2ccc(C(F)(F)F)cc2)C(=O)N[C@H](Cc2ccccc2)C(=O)N[C@@H](C(=O)NC2(C(=O)O)CC2)Cc2ccc(cc2)N1` [Compound 17] ([d(hPhe)][Phe(4-CF3)][dF][dPhe(4-NH2)][Ac3c]-OH; linker N-4 via Suc), for which the IC50 lay in the range of 10 to 30 µM.

Turning to `O=C1CCC(=O)N[C@H](Cc2cccs2)C(=O)N[C@@H](Cc2ccc(-c3ccccc3)cc2)C(=O)N[C@H](Cc2ccccc2)C(=O)N[C@H](C(=O)N[C@@H](CO)C(=O)O)Cc2ccc(cc2)N1` [Compound 22] ([d2Thi][Bip][dF][Phe(4-NH2)]S-OH; linker N-4 via Suc), the IC50 was in the range of 30 to 100 µM.

Turning to `O=C1CCC(=O)N[C@H](Cc2cccs2)C(=O)N[C@@H](Cc2ccc(-c3ccccc3)cc2)C(=O)N[C@H](Cc2ccccc2)C(=O)N[C@H](C(=O)N2CCC(C(=O)O)CC2)Cc2ccc(cc2)N1` [Compound 23] ([d2Thi][Bip][dF][Phe(4-NH2)][Inp]-OH; linker N-4 via Suc), the IC50 is over 100 µM.

In the case of `CC(C)(NC(=O)[C@@H]1Cc2ccc(cc2)NC(=O)CCC(=O)N[C@H](Cc2cccs2)C(=O)N[C@@H](Cc2ccc(-c3ccccc3)cc2)C(=O)N[C@H](Cc2ccccc2)C(=O)N1)C(=O)O` [Compound 25] ([d2Thi][Bip][dF][Phe(4-NH2)][Aib]-OH; linker N-4 via Suc), the IC50 was under 10 µM.

Regarding `O=C(O)C[C@H](NC(=O)[C@@H]1Cc2ccc(cc2)NC(=O)CCC(=O)N[C@H](Cc2cccs2)C(=O)N[C@@H](Cc2ccc(-c3ccccc3)cc2)C(=O)N[C@H](Cc2ccccc2)C(=O)N1)C(=O)O` [Compound 27] ([d2Thi][Bip][dF][Phe(4-NH2)]D-OH; linker N-4 via Suc), the IC50 is over 100 µM.

As for `NCCCC[C@H](NC(=O)[C@@H]1Cc2ccc(cc2)NC(=O)CCC(=O)N[C@H](Cc2cccs2)C(=O)N[C@@H](Cc2ccc(-c3ccccc3)cc2)C(=O)N[C@H](Cc2ccccc2)C(=O)N1)C(=O)O` [Compound 28] ([d2Thi][Bip][dF][Phe(4-NH2)]K-OH; linker N-4 via Suc), the IC50 is under 10 µM.

For `C[C@@H](C(=O)O)N(C)C(=O)[C@@H]1Cc2ccc(cc2)NC(=O)CCC(=O)N[C@H](Cc2cccs2)C(=O)N[C@@H](Cc2ccc(-c3ccccc3)cc2)C(=O)N[C@H](Cc2ccccc2)C(=O)N1` [Compound 30] ([d2Thi][Bip][dF][Phe(4-NH2)][NMeA]-OH; linker N-4 via Suc), the IC50 lay in the range of 10 to 30 µM.

As for `O=C1CCC(=O)N[C@H](Cc2cccs2)C(=O)N[C@@H](Cc2ccc(-c3ccccc3)cc2)C(=O)N[C@H](Cc2ccccc2)C(=O)N[C@H](C(=O)N2CCC[C@@H]2C(=O)O)Cc2ccc(cc2)N1` [Compound 32] ([d2Thi][Bip][dF][Phe(4-NH2)][dP]-OH; linker N-4 via Suc), the IC50 was over 100 µM.

For the compound `O=C1CCC(=O)N[C@H](Cc2cccs2)C(=O)N[C@@H](Cc2ccc(-c3ccccc3)cc2)C(=O)N[C@H](Cc2ccccc2)C(=O)N[C@H](C(=O)N2CCC[C@H](C(=O)O)C2)Cc2ccc(cc2)N1` [Compound 37] ([d2Thi][Bip][dF][Phe(4-NH2)]-X2; linker N-4 via Suc), the IC50 was over 100 µM.

Turning to `O=C1CCC(=O)N[C@H](Cc2cccs2)C(=O)N[C@@H](Cc2ccc(-c3ccccc3)cc2)C(=O)N[C@H](Cc2ccccc2)C(=O)N[C@H](C(=O)N2CCC[C@@H](C(=O)O)C2)Cc2ccc(cc2)N1` [Compound 38] ([d2Thi][Bip][dF][Phe(4-NH2)]-{Nip(3R)}; linker N-4 via Suc), the IC50 was 30 to 100 µM.

Turning to `O=C1CCC(=O)N[C@H](Cc2cccs2)C(=O)N[C@@H](Cc2ccc(-c3ccccc3)cc2)C(=O)N[C@H](Cc2ccccc2)C(=O)N[C@H](C(=O)O)CCCCN1` [Compound 42] ([d2Thi][Bip][dF]K-OH; linker N-4 via Suc), the IC50 is over 100 µM.

Turning to `C[C@H]1NC(=O)[C@H](Cc2ccc(-c3ccccc3)cc2)NC(=O)[C@@H](Cc2cccs2)NC(=O)CCC(=O)Nc2ccc(cc2)C[C@@H](C(=O)O)NC1=O` [Compound 44] ([d2Thi][Bip][dA][Phe(4-NH2)]-OH; linker N-4 via Suc), the IC50 was over 100 µM.

As for `C[C@@H]1NC(=O)[C@@H](Cc2cccs2)NC(=O)CCC(=O)Nc2ccc(cc2)C[C@@H](C(=O)O)NC(=O)[C@@H](Cc2ccccc2)NC1=O` [Compound 45] ([d2Thi]A[dF][Phe(4-NH2)]-OH; linker N-4 via Suc), the IC50 was over 100 µM.

On to `C[C@H]1NC(=O)CCC(=O)Nc2ccc(cc2)C[C@@H](C(=O)O)NC(=O)[C@@H](Cc2ccccc2)NC(=O)[C@H](Cc2ccc(-c3ccccc3)cc2)NC1=O` [Compound 46] ([dA][Bip][dF][Phe(4-NH2)]-OH; linker N-4 via Suc), for which the IC50 was over 100 µM.

As to `O=C1CCC(=O)N[C@H](Cc2cccs2)C(=O)N[C@@H](Cc2ccc(-c3ccccc3)cc2)C(=O)N[C@H](Cc2ccco2)C(=O)N[C@H](C(=O)O)Cc2ccc(cc2)N1` [Compound 48] ([d2Thi][Bip][dAla(2-furyl)][Phe(4-NH2)]-OH; linker N-4 via Suc), the IC50 was 10 to 30 µM.

For the compound `O=C1CCC(=O)N[C@H](Cc2cccs2)C(=O)N[C@@H](Cc2ccc(-c3ccccc3)cc2)C(=O)N[C@@H](Cc2ccncc2)C(=O)N[C@H](C(=O)O)Cc2ccc(cc2)N1` [Compound 49] ([d2Thi][Bip][4Pal][Phe(4-NH2)]-OH; linker N-4 via Suc), the IC50 is over 100 µM.

Turning to `O=C1CCC(=O)N[C@H](Cc2cccs2)C(=O)N[C@@H](Cc2ccc(-c3ccccc3)cc2)C(=O)N[C@H](Cc2ccncc2)C(=O)N[C@H](C(=O)O)Cc2ccc(cc2)N1` [Compound 50] ([d2Thi][Bip][d4Pal][Phe(4-NH2)]-OH; linker N-4 via Suc), the IC50 is over 100 µM.

`O=C1CCC(=O)N[C@H](Cc2cccs2)C(=O)N[C@@H](Cc2ccc(-c3ccccc3)cc2)C(=O)N[C@H](Cc2cccnc2)C(=O)N[C@H](C(=O)O)Cc2ccc(cc2)N1` [Compound 51] ([d2Thi][Bip][d3Pal][Phe(4-NH2)]-OH; linker N-4 via Suc): the IC50 is over 100 µM.

`O=C1CCC(=O)N[C@H](Cc2cccs2)C(=O)N[C@@H](Cc2ccc(-c3ccccc3)cc2)C(=O)N[C@@H](Cc2cccnc2)C(=O)N[C@H](C(=O)O)Cc2ccc(cc2)N1` [Compound 52] ([d2Thi][Bip][3Pal][Phe(4-NH2)]-OH; linker N-4 via Suc): the IC50 is over 100 µM.

In the case of `O=C1CCC(=O)N[C@H](Cc2cccs2)C(=O)N[C@@H](Cc2ccc(-c3ccccc3)cc2)C(=O)N[C@@H](Cc2ccccn2)C(=O)N[C@H](C(=O)O)Cc2ccc(cc2)N1` [Compound 53] ([d2Thi][Bip][2Pal][Phe(4-NH2)]-OH; linker N-4 via Suc), the IC50 was over 100 µM.
